The source of these data is patent US20220008542A1, “ANTI-PROTOZOAL COMPOUNDS AND USES THEREOF” (AUBURN UNIVERSITY, priority 2017, published 2022).

Like-named read-outs stand apart in the source and are kept apart here.

The test system of assay [1] is T. foetus trophozoites. In words: Example 3: T. foetus trophozoites in tissue culture wells, 5 passages (120 hours), re-emergence of organisms. Conditions: for subsequent cultures: over a 5 day period. In kind it is cell-based, Tritrichomonas foetus. The procedure: (§1) Experiments were performed in vitro using pure cultures of T. foetus trophozoites with the addition of i) an antiprotozoal compound alone or ii) a veterinary formulation comprising an antiprotozoal compound and a polymer. Samples were evaluated at predetermined time points using Neubauer hemocytometers (C-Chip® NanoEnTek Inc., Pleasanton, Calif.) to determine the number of viable organisms and the induction of the pseudocyst form. Cultures were tested for reversibility to the motile trophozoite form or replication of organisms.
(§2) The CDTf3 cloned strain of T. foetus was utilized for the instant examples. The parasites were cultivated in trypticase-yeast extract-maltose (TYM) Diamond's medium (DM) and supplemented with 10% heat-inactivated fetal bovine serum (Atlanta Biologics, Norcross, Ga.) at 37° C. for 24-48 hours until adequate numbers of trichomonads were present to perform the required number of replications. Following culture, T. foetus organisms were washed and re-suspended in 1 mL of sterile phosphate buffered saline (PBS) and then inoculated into 15 mL conical tubes (BD Falcon, Franklin Lakes, N.J.) or tissue culture wells (Sarstedt, Inc., Newton, N.C.) containing DM.
Trophozoites (5×10^4 mL^−1) were cultured as described above and added to all tissue culture wells along with 3 mL of DM for a total volume of 4 mL of DM with 50,000 organisms per well. At time 0, each of the following treatment groups were added to tissue culture wells as follows: Group 1) positive control 4 mL DM; Group 2) negative control 4 mL 70% ethanol (EtOH); Group 3) 150 mg oxfendazole solution (OXF) (1 mL)+2 mL Velvachol (VC)+1 mL PLO; Group 4) 150 mg OXF (1 mL)+3 mL VC; Group 5) 150 mg OXF (1 mL)+3 mL EtOH; Group 6) 150 mg OXF (1 mL)+2 mL EtOH+1 mL PLO; Group 7) 1 mL EtOH+2 mL VC+1 mL PLO; Group 8) 1 mL EtOH+3 mL VC; Group 9) 3 mL EtOH+1 mL PLO; Group 10) 4 mL EtOH; Group 11) 4 mL VC; Group 12) 150 mg oxfendazole dissolved in 4 mL 99% DMSO; and Group 13) 4 mL 99% DMSO.
The OXF (U.S. Pharmacopeial Convention Rockville, Md.) stock solution was made in EtOH (Humco Texarkana, TX) and stored at 150 mg mL^−1, with the exception of Formulation 13 which included OXF dissolved in 99% DMSO (VedCo, Saint Joseph, Mo.). The combinations of PLO (Pluronic F127 Letco Medical, Decatur, Ala.), VC (Valeant North America LLC, Bridgewater, N.J.), EtOH (Humco Texarkana, TX), and OXF stock solution were mixed as described above.
Each treatment was applied to tissue culture wells in duplicate. Following culture as described in Example 2, samples were collected every 8 hours for a total of 24 hours and counted as previously described. At 24 hours post-treatment and following counting of organisms, each formulation was removed from the tissue culture well and centrifuged at 4000 g for 10 minutes. The supernatant was removed and placed in a labeled vial for evaluation of drug concentration at a later time. The pellet was re-suspended in 4 mL of DM and placed once again in a tissue culture well before being re-incubated at 37° C. This process was repeated every 24 hours for 5 passages (120 hours) to allow for re-emergence of any organisms. Assays were continued to be microscopically examined during this period for the presence of T. foetus organisms in culture by counting of live organisms.

Assay [2] relates to T. foetus trophozoites. Description: Example 1: T. foetus trophozoites in culture tubes, surviving organisms counted by hemocytometer, re-culture at 12 hours. Particulars: for inhibition of parasite growth: PO 75 mg mL^-1, OX 50 mg mL^-1, compound alone; for reduction in motile organisms: after 2 hours of culture, compound alone; for motile organisms after re-culture: re-culture at 12 hours, examination at 24 hours. In kind it is cell-based, Tritrichomonas foetus. The procedure:
as §1, §2
Trophozoites (3.75×10^5 mL^−1) were washed in PBS (VWR, Radnor, Pa.) and inoculated into 10 mL of fresh DM. At time 0, each of the following treatment groups was added to culture tubes: Group 1) control: 0.5 mL DM; Group 2) 0.5 mL pluronic lecithin organogel (PLO; Pluronic F127); Group 3) 75 mg ponazuril (PO) (0.5 mL); Group 4) 50 mg oxibendazole (OX) (0.5 mL); Group 5) 37.5 mg PO (0.25 mL)+0.25 mL PLO; and Group 6) 25 mg OX (0.25 mL)+0.25 mL PLO.
PLO (Pluronic F127 Letco Medical, Decatur, Ala.) was combined with OX (Anthelcide EQ® Zoetis, Florham Park, N.J.) or PO (Marquis® Merial, Duluth, Ga.) paste formulations by shear force, syringe-to-syringe-blending using two luer-lock syringes and a rapid fill connector (Baxter, Inglewood, Calif.). Each treatment was applied to conical culture tubes in 5 replicates. Following growth at 37° C., samples were taken every 2 hours for a total of 12 hours, and the tubes were vortexed prior to removal of a 20 μL sample. From these samples, the surviving organisms were counted utilizing disposable Neubauer hemocytometers (C-Chip® NanoEnTek Inc., Pleasanton, Calif.). At 12 hours post-treatment, each formulation was recultured in fresh DM without antiprotozoal compound and evaluated microscopically daily for the presence of T. foetus organisms in culture. These assays were performed in order to evaluate if the effects exerted by the antiprotozoal compounds could be reversed.

As to `C[S+](C)[O-]` [DMSO], in the assay with T. foetus trophozoites [1], the “surviving organisms / form seen, 8 hours post-incubation” value is given as “dead trophs”; the “surviving organisms / form seen, 16 hours post-incubation” value is listed as “dead trophs”; the “surviving organisms / form seen, 24 hours post-incubation” value is on record as “dead trophs”; the “surviving organisms / form seen, 48 hours post-incubation” value is “dead trophs”. In the assay with T. foetus trophozoites [1], the “surviving organisms / form seen, 72 hours post-incubation” value is on record as “dead trophs”; the “surviving organisms / form seen, 96 hours post-incubation” value is “no cells”; the “surviving organisms / form seen, 120 hours post-incubation” value is “no cells”; the subsequent cultures entry was “negative cultures”. In the assay with T. foetus trophozoites [1] (listed as 99% DMSO), the death of trophozoites entry was “capable of inducing death of trophozoites”.
With `Cc1cc(-n2c(=O)[nH]c(=O)n(C)c2=O)ccc1Oc1ccc(S(=O)(=O)C(F)(F)F)cc1` [PO, 1-Methyl-3-(3-methyl-4-(4-((trifluoromethyl)sulfonyl)phenoxy)phenyl)-1,3,5-triazinane-2,4,6-trione], in the assay on T. foetus trophozoites [2], the “inhibition of parasite growth” value is recorded as “significantly inhibited parasite growth”, the “reduction in motile organisms” value amounted to 98% and the “motile organisms after re-culture” value is recorded as “reestablishment of motile organisms was observed”.
The matching figures for `CCCOc1ccc2nc(NC(=O)OC)[nH]c2c1` [OX, methyl (5-propoxy-1H-benzimidazol-2-yl)carbamate]: “significantly inhibited parasite growth”, 98% and “reestablishment of motile organisms was observed”.
Consider `CCO` [EtOH, ethanol], for which, in the assay with T. foetus trophozoites [1], the death of trophozoites result is reported as “capable of inducing death of trophozoites”; the “surviving organisms / form seen, 8 hours post-incubation” value is given as “dead trophs”; the “surviving organisms / form seen, 16 hours post-incubation” value was “dead trophs”; the “surviving organisms / form seen, 24 hours post-incubation” value is given as “dead trophs”. For the same molecule, in the assay with T. foetus trophozoites [1], the “surviving organisms / form seen, 48 hours post-incubation” value was “dead trophs”; the “surviving organisms / form seen, 72 hours post-incubation” value was “dead trophs”; the “surviving organisms / form seen, 96 hours post-incubation” value was “no cells”; the “surviving organisms / form seen, 120 hours post-incubation” value is “no cells”. For the same molecule, the subsequent cultures result in the assay with T. foetus trophozoites [1] was “negative cultures”.
